Measurements taken from patent publication US10392391B2 (Vertex Pharmaceuticals Incorporated, priority 2012, dated 2019).

The compounds below were run against ATR kinase (full-length ATR) (Homo sapiens (Human), UniProt Q13535) (assay: ATR inhibition assay (radioactive-phosphate incorporation)). Settings: not given.
Assay type: biochemical
Experimental: Compounds were screened for their ability to inhibit ATR kinase using a radioactive-phosphate incorporation assay. Assays were carried out in a mixture of 50 mM Tris/HCl (pH 7.5), 10 mM MgCl2 and 1 mM DTT. Final substrate concentrations were 10 μM [γ-33P]ATP (3mCi 33P ATP/mmol ATP, Perkin Elmer) and 800 μM target peptide ([…]) (SEQ ID NO:1).
Assays were carried out at 25° C. in the presence of 5 nM full-length ATR. An assay stock buffer solution was prepared containing all of the reagents listed above, with the exception of ATP and the test compound of interest. 13.5 μL of the stock solution was placed in a 96 well plate followed by addition of 2 μL of DMSO stock containing serial dilutions of the test compound (typically starting from a final concentration of 15 μM with 3-fold serial dilutions) in duplicate (final DMSO concentration 7%). The plate was pre-incubated for 10 minutes at 25° C. and the reaction initiated by addition of 15 μL [γ-33P]ATP (final concentration 10 μM).
The reaction was stopped after […] by the addition of 30 μL 0.1M phosphoric acid containing 2 mM ATP. A multiscreen phosphocellulose filter 96-well plate (Millipore, Cat no. MAPHN0B50) was pretreated with 100 μL 0.2M phosphoric acid prior to the addition of […] of the stopped assay mixture. The plate was washed with 5×200 μL 0.2M phosphoric acid. After drying, 100 μL Optiphase ‘SuperMix’ liquid scintillation cocktail (Perkin Elmer) was added to the well prior to scintillation counting (1450 Microbeta Liquid Scintillation Counter, Wallac).
After removing mean background values for all of the data points, Ki(app) data were calculated from non-linear regression analysis of the initial rate data using the Prism software package (GraphPad Prism version 3.0cx for Macintosh, GraphPad Software, San Diego Calif., USA).

Sequence of ATR kinase (full-length ATR) (Q13535 whole entry): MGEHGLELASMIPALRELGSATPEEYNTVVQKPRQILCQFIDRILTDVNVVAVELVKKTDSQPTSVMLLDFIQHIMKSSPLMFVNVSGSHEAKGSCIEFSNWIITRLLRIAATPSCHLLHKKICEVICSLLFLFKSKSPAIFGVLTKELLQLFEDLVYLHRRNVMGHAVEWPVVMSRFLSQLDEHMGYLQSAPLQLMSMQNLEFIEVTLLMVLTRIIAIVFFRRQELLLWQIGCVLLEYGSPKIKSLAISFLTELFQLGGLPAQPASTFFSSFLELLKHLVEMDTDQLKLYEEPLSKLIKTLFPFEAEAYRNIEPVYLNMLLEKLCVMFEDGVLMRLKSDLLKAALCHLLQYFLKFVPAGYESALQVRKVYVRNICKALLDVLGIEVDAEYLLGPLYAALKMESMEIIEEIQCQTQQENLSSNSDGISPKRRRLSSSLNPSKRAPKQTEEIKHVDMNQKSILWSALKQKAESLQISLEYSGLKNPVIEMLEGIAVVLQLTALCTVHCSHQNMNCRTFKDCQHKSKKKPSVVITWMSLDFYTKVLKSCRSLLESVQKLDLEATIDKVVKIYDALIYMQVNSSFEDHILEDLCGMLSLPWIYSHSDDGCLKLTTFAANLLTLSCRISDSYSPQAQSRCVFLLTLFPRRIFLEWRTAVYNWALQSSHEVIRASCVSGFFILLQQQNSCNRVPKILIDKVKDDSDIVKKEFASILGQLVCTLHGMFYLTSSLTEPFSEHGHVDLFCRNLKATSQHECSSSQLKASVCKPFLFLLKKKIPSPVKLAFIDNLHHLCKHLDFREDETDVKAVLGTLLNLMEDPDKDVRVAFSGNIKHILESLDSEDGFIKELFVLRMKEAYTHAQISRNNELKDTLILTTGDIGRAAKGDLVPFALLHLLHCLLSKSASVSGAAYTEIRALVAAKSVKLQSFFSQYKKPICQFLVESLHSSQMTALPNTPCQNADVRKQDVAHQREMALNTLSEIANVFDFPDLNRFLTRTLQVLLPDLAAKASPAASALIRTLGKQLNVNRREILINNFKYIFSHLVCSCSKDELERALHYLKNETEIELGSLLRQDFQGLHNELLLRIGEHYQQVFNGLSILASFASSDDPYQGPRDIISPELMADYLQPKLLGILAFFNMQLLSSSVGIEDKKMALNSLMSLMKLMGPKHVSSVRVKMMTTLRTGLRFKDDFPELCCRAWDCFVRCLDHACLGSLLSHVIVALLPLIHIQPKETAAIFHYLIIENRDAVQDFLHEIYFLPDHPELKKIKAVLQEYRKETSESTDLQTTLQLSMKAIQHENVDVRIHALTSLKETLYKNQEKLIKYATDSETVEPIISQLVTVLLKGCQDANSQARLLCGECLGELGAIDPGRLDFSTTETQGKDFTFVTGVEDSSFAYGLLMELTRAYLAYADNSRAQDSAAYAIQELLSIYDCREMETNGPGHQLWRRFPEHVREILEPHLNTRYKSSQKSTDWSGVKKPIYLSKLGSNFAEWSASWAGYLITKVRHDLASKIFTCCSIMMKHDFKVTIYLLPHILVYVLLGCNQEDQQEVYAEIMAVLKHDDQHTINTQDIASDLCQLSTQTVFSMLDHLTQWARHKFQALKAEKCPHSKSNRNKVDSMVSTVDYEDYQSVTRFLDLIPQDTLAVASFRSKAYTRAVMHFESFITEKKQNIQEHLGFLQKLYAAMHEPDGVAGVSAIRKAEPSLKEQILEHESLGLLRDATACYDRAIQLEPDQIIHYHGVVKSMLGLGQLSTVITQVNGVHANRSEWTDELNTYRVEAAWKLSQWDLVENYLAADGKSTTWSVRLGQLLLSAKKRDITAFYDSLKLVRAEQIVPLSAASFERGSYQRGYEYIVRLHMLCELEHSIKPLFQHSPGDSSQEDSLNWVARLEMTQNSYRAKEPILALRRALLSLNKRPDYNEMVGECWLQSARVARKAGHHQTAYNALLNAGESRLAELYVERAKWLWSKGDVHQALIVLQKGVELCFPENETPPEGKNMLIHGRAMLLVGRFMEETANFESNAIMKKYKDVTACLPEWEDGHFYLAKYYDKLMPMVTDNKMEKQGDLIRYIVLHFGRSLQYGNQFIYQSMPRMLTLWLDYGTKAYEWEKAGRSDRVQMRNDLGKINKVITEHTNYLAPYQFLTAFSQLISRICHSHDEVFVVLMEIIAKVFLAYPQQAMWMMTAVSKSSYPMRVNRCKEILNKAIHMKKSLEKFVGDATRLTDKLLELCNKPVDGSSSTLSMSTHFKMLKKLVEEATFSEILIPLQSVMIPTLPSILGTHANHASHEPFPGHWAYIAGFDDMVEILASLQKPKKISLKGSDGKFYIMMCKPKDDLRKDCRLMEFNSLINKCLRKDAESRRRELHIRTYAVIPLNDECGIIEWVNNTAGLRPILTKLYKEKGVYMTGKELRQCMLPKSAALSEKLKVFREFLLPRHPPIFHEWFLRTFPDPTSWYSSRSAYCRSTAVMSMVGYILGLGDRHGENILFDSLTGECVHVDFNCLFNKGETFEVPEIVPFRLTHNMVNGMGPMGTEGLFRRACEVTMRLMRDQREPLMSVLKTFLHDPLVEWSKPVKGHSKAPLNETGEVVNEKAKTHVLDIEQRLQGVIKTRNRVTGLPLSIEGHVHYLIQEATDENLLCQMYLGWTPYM

Ki [nM]	SMILES
1000 to 5000	CN1CCC(c2ccncc2NC(=O)c2c(N)nn3cc(F)cnc23)CC1 [I-C-1, 2-amino-6-fluoro-N-(4-(1-methylpiperidin-4-yl)pyridin-3-yl)pyrazolo[1,5-a]pyrimidine-3-carboxamide]
1000 to 5000	Cc1ccncc1NC(=O)c1c(N)nn2cc(Cl)cnc12 [I-C-2, 2-amino-6-chloro-N-(4-methylpyridin-3-yl)pyrazolo[1,5-a]pyrimidine-3-carboxamide]

Same assay, conditions: Ki(app), 5 nM full-length ATR, 10 μM ATP, 25° C.

SMILES	Ki [nM]
Nc1nn2cc(F)cnc2c1C(=O)Nc1cnccc1OC1CN2CCC1CC2 (racemic) [I-O-6, (R,S)-2-amino-6-fluoro-N-(4-(quinuclidin-3-yloxy)pyridin-3-yl)pyrazolo[1,5-a]pyrimidine-3-carboxamide]	10 to 1000
N#CCc1cnc2c(C(=O)Nc3cnccc3OC3CN4CCC3CC4)c(N)nn2c1 (racemic) [I-O-22, (R,S)-2-amino-6-(cyanomethyl)-N-(4-(quinuclidin-3-yloxy)pyridin-3-yl)pyrazolo[1,5-a]pyrimidine-3-carboxamide]	10 to 1000
Cc1ccncc1NC(=O)c1c(N)nn2cc(CC#N)cnc12 [I-C-3, 2-amino-6-(cyanomethyl)-N-(4-methylpyridin-3-yl)pyrazolo[1,5-a]pyrimidine-3-carboxamide]	10 to 1000
Nc1nn2cc(F)cnc2c1C(=O)Nc1cnccc1-c1ccccc1 [I-C-5, 2-amino-6-fluoro-N-(4-phenylpyridin-3-yl)pyrazolo[1,5-a]pyrimidine-3-carboxamide]	10 to 1000
N#CCc1cnc2c(C(=O)Nc3cnccc3-c3ccccc3)c(N)nn2c1 [I-C-6, 2-amino-6-(cyanomethyl)-N-(4-phenylpyridin-3-yl)pyrazolo[1,5-a]pyrimidine-3-carboxamide]	10 to 1000
CN1CCc2c(cncc2NC(=O)c2c(N)nn3cc(F)cnc23)C1 [I-C-8, 2-amino-6-fluoro-N-(7-methyl-5,6,7,8-tetrahydro-2,7-naphthyridin-4-yl)pyrazolo[1,5-a]pyrimidine-3-carboxamide]	10 to 1000

Results, then the compound that gave them:

Ki [nM]	SMILES
10 to 1000	Nc1nn2cc(F)cnc2c1C(=O)Nc1cnccc1N1CCN(C2CCOC2)CC1 (racemic) [I-N-19, (R,S)-2-amino-6-fluoro-N-(4-(4-(tetrahydrofuran-3-yl)piperazin-1-yl)pyridin-3-yl)pyrazolo[1,5-a]pyrimidine-3-carboxamide]
< 10	N#CCc1cnc2c(C(=O)Nc3cnccc3OC3CCCNC3)c(N)nn2c1 (racemic) [I-O-2, (R,S)-2-amino-6-(cyanomethyl)-N-(4-(piperidin-3-yloxy)pyridin-3-yl)pyrazolo[1,5-a]pyrimidine-3-carboxamide]
10 to 1000	Nc1nn2cc(F)cnc2c1C(=O)Nc1cnccc1OC1CCOC1 (racemic) [I-O-15, (R,S)-2-amino-6-fluoro-N-(4-((tetrahydrofuran-3-yl)oxy)pyridin-3-yl)pyrazolo[1,5-a]pyrimidine-3-carboxamide]
< 10	N#CCc1cnc2c(C(=O)Nc3cnccc3OC3CCOC3)c(N)nn2c1 (racemic) [I-O-37, (R,S)-2-amino-6-(cyanomethyl)-N-(4-((tetrahydrofuran-3-yl)oxy)pyridin-3-yl)pyrazolo[1,5-a]pyrimidine-3-carboxamide]
10 to 1000	Cc1ccncc1NC(=O)c1c(N)nn2cc(F)cnc12 [I-C-4, 2-amino-6-fluoro-N-(4-methylpyridin-3-yl)pyrazolo[1,5-a]pyrimidine-3-carboxamide]
10 to 1000	Nc1nn2cc(F)cnc2c1C(=O)Nc1cncc2c1CCNC2 [I-C-7, 2-amino-6-fluoro-N-(5,6,7,8-tetrahydro-2,7-naphthyridin-4-yl)pyrazolo[1,5-a]pyrimidine-3-carboxamide]
10 to 1000	C[N+]1([O-])CCc2c(cncc2NC(=O)c2c(N)nn3cc(F)cnc23)C1 (stereo not drawn) [I-C-9, 5-(2-amino-6-fluoropyrazolo[1,5-a]pyrimidine-3-carboxamido)-2-methyl-1,2,3,4-tetrahydro-2,7-naphthyridine 2-oxide]
